Measurements: patent publication US12053475B2, “TRPC ion channel inhibitors for use in therapy” (UNIVERSITY OF LEEDS, priority 2017, dated 2024)
One block for each compound: values may come before it.

Legend:
TRPC5 [1] = molecular target: T1, TRPC5 (Homo sapiens, UniProt Q9UL62); parameters: host or cells: HEK239 (so in the source); settings: HEK239 cells expressing TRPC5; Naylor et al.; cited from earlier work
T1 sequence (Q9UL62 1-973): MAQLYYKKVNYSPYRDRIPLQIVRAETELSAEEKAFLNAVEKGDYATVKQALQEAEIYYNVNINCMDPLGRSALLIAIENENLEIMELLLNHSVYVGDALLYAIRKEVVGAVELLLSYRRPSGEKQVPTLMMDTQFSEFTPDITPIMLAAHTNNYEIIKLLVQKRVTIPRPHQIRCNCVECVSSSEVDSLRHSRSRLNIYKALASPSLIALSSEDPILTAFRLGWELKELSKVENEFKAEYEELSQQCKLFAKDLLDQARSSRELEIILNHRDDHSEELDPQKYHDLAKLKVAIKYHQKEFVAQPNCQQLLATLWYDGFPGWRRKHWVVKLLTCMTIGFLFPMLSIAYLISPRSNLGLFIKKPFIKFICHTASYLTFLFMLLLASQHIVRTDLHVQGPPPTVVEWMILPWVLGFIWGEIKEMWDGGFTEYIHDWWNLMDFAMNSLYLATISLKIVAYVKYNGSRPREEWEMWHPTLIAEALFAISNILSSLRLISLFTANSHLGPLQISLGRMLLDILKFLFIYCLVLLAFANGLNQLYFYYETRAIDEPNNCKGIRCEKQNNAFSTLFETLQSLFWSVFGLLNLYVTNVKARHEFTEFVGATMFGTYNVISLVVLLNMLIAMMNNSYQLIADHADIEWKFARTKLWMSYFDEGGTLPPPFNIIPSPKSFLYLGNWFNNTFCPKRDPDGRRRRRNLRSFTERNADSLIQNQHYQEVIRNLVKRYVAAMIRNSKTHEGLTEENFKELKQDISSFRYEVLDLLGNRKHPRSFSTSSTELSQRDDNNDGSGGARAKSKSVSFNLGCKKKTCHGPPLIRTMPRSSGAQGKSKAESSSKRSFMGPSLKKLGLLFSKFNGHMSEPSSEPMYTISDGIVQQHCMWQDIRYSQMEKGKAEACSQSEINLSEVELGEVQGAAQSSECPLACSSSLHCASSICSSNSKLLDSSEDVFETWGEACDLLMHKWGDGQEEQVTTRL

TRPC5 [2] = molecular target: T1, TRPC5; parameters: host or cells: HEK239 (so in the source); settings: Mol Pharmacol. 2014; cited from earlier work
UCP1 and Cytochrome C = assay: mRNA analysis of UCP1 and Cytochrome C expression in adipocytes (beiging markers); type: cell-based, mice; settings: 10 μM DE2, 24 hr pre-incubation; vs DMSO; FIG. 14
Protocol: Quantitative RT-PCR analysis RNA from cell and tissue samples was obtained using TRIzol reagent (Thermo Fisher Scientific). 1 μg RNA was reverse-transcribed using High-Capacity cDNA Reverse Transcription Kit (Applied Biosystems) and RT-PCR analysis was performed using SYBR Select Masters Mix (Thermo Fisher Scientific) and LightCycler® 480 (Roche Life Science). The primers used are tabulated in Supplementary Table 1^34. Relative fold-change in expression was calculated using the comparative cycle method (2^−ΔΔCt) Mouse Gapdh gene was used as the reference.
To determine the influence of DE2 and C31 on expression of markers of white-to-brown adipocyte phenotypic switching, transcript accumulation of UCP1 and Cytochrome C was measured by mRNA analysis in adipocytes from subcutaneous white adipose tissue (n=4-5) of C4WT, C5WT, C4KO, and C5KO mice. Cells were pre-incubated with (24 hr) and maintained in 10 μM DE2 or 100 nM C31 where indicated. The vehicle control was DMSO.

human TRPC4 = molecular target: T2, human TRPC4 (Homo sapiens, UniProt Q9UBN4); assay: Intracellular Ca2+ measurement, HEK 293 cells expressing inducible human TRPC4, activated by (−)-Englerin A; type: cell-based; settings: 10 μM DE2, 30 min pre-incubation; EA 100 nM; FIG. 12
T2 construct: expressed in transfected cells
T2 sequence (Q9UBN4 1-977): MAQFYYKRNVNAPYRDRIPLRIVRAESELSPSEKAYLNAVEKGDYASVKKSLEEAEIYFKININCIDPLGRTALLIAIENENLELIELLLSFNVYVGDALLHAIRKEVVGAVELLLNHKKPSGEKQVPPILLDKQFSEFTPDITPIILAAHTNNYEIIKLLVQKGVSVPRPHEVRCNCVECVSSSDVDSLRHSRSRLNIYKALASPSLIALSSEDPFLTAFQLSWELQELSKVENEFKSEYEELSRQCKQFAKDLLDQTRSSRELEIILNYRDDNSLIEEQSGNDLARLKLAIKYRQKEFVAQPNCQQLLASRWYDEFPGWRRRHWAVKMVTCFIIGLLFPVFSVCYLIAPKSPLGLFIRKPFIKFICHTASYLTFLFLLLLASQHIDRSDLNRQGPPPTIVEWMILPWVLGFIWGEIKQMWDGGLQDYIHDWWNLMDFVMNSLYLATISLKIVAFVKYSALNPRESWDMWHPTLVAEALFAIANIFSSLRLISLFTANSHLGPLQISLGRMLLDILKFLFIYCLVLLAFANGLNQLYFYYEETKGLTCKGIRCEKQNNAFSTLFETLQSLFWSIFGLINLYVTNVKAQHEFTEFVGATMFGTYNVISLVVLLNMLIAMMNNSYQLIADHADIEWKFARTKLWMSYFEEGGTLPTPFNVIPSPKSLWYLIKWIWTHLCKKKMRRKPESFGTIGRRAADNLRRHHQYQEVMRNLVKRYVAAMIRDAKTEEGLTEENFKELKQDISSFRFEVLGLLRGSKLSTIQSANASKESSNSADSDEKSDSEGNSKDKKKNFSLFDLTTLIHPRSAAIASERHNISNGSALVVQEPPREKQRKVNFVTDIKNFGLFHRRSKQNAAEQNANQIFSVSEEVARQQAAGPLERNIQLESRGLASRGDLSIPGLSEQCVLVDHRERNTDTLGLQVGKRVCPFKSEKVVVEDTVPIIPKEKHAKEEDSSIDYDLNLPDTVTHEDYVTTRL
Protocol: (§1) Cell culture Mouse stromal vascular fraction (SVF) cells from subcutaneous adipose tissue were isolated by mincing of the tissue followed by enzymatic digestion with 0.3 mg·mL^−1 Collagenase type II (Sigma), 0.3 mg·mL^−1 Collagenase type IV (Sigma), 2 mg·mL^−1 BSA (Sigma), 0.08 mg·mL^−1 DNase I (Sigma) and 0.04 mg·mL^−1 Dispase (Thermo Fisher Scientific) in serum free RPMI 1640 media (Gibco) for 45 min at 37° C. in 95% O2 and 5% CO2 environment. Isolated cells were centrifuged and processed through a 100 μm cell strainer. Following centrifugation, the cell pellet was reconstituted in full RPMI 1640 media containing 15% fetal calf serum and 1% penicillin-streptomycin (Gibco). Media was changed on the following day to remove non-adherent cells. […]
(§2) Intracellular Ca^2+ measurement HEK 293 cells containing stable incorporation of inducible TRPC4 or TRPC5 expression were seeded into 96-well clear-bottomed poly-D-lysine-coated black plates (Corning Life Sciences) at 90% confluence 24 hr before the experiment. […] The Fura-2-AM fluorescence was recorded using a 96-well fluorescence plate reader FlexStation II (Molecular Devices) at excitation wavelengths of 340 nm and 380 nm, and the emitted light was collected at 510 nm. […]

TRPC5 [3] = molecular target: T1, TRPC5; assay: Intracellular Ca2+ measurement, HEK 293 cells expressing inducible human TRPC5, activated by (−)-Englerin A; type: cell-based; parameters: expressed in transfected cells; settings: 10 μM DE2, 30 min pre-incubation; EA 100 nM; FIG. 12
Protocol: as §1, §2

[4] = system: adipocytes from subcutaneous white adipose tissue of mice; assay: Respirometry (oxygen consumption) in adipocytes; type: cell-based; settings: 10 μM DE2, 24 hr pre-incubation; vs DMSO; FIG. 13
Protocol: Protein preparation and immunoblotting Proteins were isolated from cells and tissues using radio-immunoprecipitation assay (RIPA) buffer containing (in mM) 150 NaCl, 20 Tris HCl, 1 EGTA, 1 EDTA, 1% NP-40, 0.1% sodium dodecyl sulfate (SDS) and 1% sodium deoxylate. Complete™ protease inhibitor (Roche Life Science) was added into RIPA fresh before use in accordance with the manufacturer's instructions. Immunoblotting was carried out under standard protocols with primary antibodies anti-UCP1 (1:500, ab23841; Abcam), Cytochrome C (1:4000, ab110325; Abcam), Akt (pan) (1:1000, 4691; Cell Signaling) and Phospho-Akt (Ser473) (1:500, 4060; Cell Signaling). […] The cells were inoculated into the OROBOROS Oxygraph-2k chambers and oxidative phosphorylation analyses were performed using the mitochondrial substrate-uncoupler-inhibitor-titration protocol consisting of: substrate activation using sodium pyruvate, inhibition of ATP synthase using oligomycin, uncoupling via sequential addition of FCCP to maximum oxygen flux, mitochondria complex I and III inhibition using Rotenone and Antimycin A. Traces were analyzed using DatLab 6 Software (OROBOROS), measuring for routine state respiration (routine), mitochondrial leak (leak), maximum uncoupling capacity of the electron transport system (ETS) and rotenone and antimycin A-inhibited residual oxygen consumption (ROX). […]

Structure (SMILES): Oc1ccc(C=Cc2cc(O)cc(O)c2)cc1 [resveratrol]
inhibition of TRPC5 ion channel function (TRPC5 [1]): inhibitors

Structure (SMILES): O=c1c(O)c(-c2ccccc2)oc2cc(O)cc(O)c12 [galangin]
inhibition of TRPC5 ion channel function (TRPC5 [1]): inhibitors

Structure (SMILES): O=C1O[C@H]([C@@H](O)CO)C(O)=C1O [vitamin C]
inhibition of TRPC5 ion channel function (TRPC5 [1]): inhibitors

Structure (SMILES): Clc1ccc(Cn2c(CN3CCCC3)nc3ccccc32)cc1 [Clemizole, clemizole]
inhibition of TRPC5 (TRPC5 [2]): potent and selective inhibitor

inhibition of TRPC4 channels (intracellular Ca2+) (human TRPC4): demonstrated inhibition | inhibition of TRPC5 channels (intracellular Ca2+) (TRPC5 [3]): demonstrated inhibition
Structure (SMILES): CCN(CC)Cc1nc2ccccc2n1Cc1ccc(Cl)cc1 [DE2, ({1-[(4-Chlorophenyl)methyl]-1H-benzimidazol-2-yl}methyl)diethylamine]
adipocyte UCP1/Cytochrome C expression (UCP1 and Cytochrome C): increases | adipocyte mitochondrial respiration [4]: increases
